Test results reported in patent US12653856B2, “Gynostemma pentaphyllum tea or Gynostemma pentaphyllum tea extract containing gypenoside L and gypenoside LI and antiobesity use thereof” (BIONIC TRADING CORPORATION, priority 2021, dated 2026).
Marks after values point to notes of the source that are not given here.

Tested on: male ICR mice on high-fat feed
Experiment: Body fat and body weight reduction in mice given high-fat feed
Format: in vivo, mouse
Conditions: extracts 300 mg/kg
From the text: As experimental animals, 4-week-old male ICR mice were purchased from Orient Bio and acclimated for a week. Each group consisted of 10 animals. For a normal diet group (G1) and high-fat diet groups (G2 to G6), normal feed (energy ratio (kcal %); protein:carbohydrate:fat=20:70:10) or high-fat feed (energy ratio (kcal %); protein:carbohydrate:fat=20:20:60) purchased from Research Diets, Inc. (New Brunswick, NJ, USA) was provided, respectively. The feed and water were allowed freely. The specific compositions of the normal feed and the high-fat feed are described in Table 6. The test substance was administered orally at regular intervals for 8 weeks by dissolving in physiological saline (G3 to G6). For G1 and G2, physiological saline containing no test substance was administered orally. The experimental animal breeding room was maintained at 12-hour lighting cycles under the condition of 23±3° C., 50 t 10% relative humidity and 10-15 ventilations/hour. The animal experiment was conducted in accordance with the regulations of the Hallym University Institutional Animal Care and Use Committee (Hallym 2018-31). The experimental animals were divided into […]: normal group (G) to which normal feed was given for 6 weeks; control group (G2) to which high-fat feed was given; G3 to which high-fat feed was given and 300 mg/kg of the Gynostemma pentaphyllum tea extract of Example was administered; G4 to which 300 mg/kg of the Gynostemma pentaphyllum tea extract of Comparative Example was administered; G5 to which 300 mg/kg of the Gynostemma pentaphyllum tea extract of Comparative Example 2 was administered; G6 to which 300 mg/kg of the Gynostemma pentaphyllum tea extract of Comparative Example 3 was administered; […] The composition of the test groups is described specifically in Table 7. Initial body weight, final body weight, total body weight gain, feed intake, body fat percentage and feed efficiency ratio (FER) were measured while providing the feed specified in 6-2 to each test group for 8 weeks. Specifically, the body weight was measured using a digital scale once a week at the same time. The feed efficiency ratio (FER) was calculated by the following equation. The result of investigating the initial body weight, final body weight, total body weight gain, feed intake, body fat percentage and feed efficiency ratio for 8 weeks is given in Table 8. Feed efficiency ratio (FER)=body weight gain (g)/feed intake (g) [Equation]

[1] = high-fat feed, 8 weeks oral, orlistat 30 mg/kg

## CCCCCCCCCCC[C@@H](C[C@@H]1OC(=O)[C@H]1CCCCCC)OC(=O)[C@H](CC(C)C)NC=O [Orlistat, orlistat]
baseline, high-fat feed ICR mice, orlistat 30 mg/kg oral
  Initial body weight: 21.7 ± 0.2 g
Body weight gain (g)/feed intake (g), high-fat feed, 8 weeks oral, orlistat 30 mg/kg
  Feed efficiency ratio (FER): 0.126 ± 0.005
[1]
  Body fat percentage (%): 36.6 ± 0.7 %
  Body weight gain (%): 70.97* %
  Final body weight: 37.1 ± 0.6 g
  Total body weight gain: 15.4 ± 0.2 g
  Total feed intake: 122.4 ± 0.3 g
